What was measured:
Format in all cases: in vivo
[1] = tested on: winter barley (Hordeum vulgare); assay: Test B postemergence plant response; conditions: Postemergence
Outline: (§1)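 Scoring: 0 means no effect and 100 complete control, judged by eye against controls after 13–15 days under greenhouse conditions following postemergence application at 2–18 cm plant height.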

[2] = tested on: chickweed (Stellaria media); assay: Test B postemergence plant response; conditions: Postemergence
Outline: as §1

[3] = tested on: windgrass (Apera spica-venti); assay: Test B postemergence plant response; conditions: Postemergence
Outline: as §1

[4] = tested on: canarygrass (Phalaris minor); assay: Test B postemergence plant response; conditions: Postemergence
Outline: as §1

[5] = tested on: barnyardgrass (Echinochloa crus-galli); assay: Test B flooded paddy test plant response
Outline: (§2)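 Paddy-water application to 2-leaf plants in pots held under 3 cm of flooding; response is a 0–100 visual control rating against controls after 13 to 15 days, and a dash marks a missing result.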

[6] = tested on: umbrella sedge (Cyperus difformis); assay: Test B flooded paddy test plant response
Outline: as §2

[7] = tested on: rice (Oryza sativa); assay: Test B flooded paddy test plant response
Outline: as §2

[8] = tested on: giant foxtail (Setaria faberi); assay: Test A pre-/postemergence plant response
Outline: (§3)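 Seeds were planted in blended loam soil and sand, then treated preemergence by directed soil spray. At that time, emerged plants (one- to two-leaf, 2–10 cm) received postemergence applications of the same surfactant-containing formulation. Injury was assessed visually on a 0–100 scale after approximately 10 days.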

[9] = tested on: wheat (Triticum aestivum); assay: Test A pre-/postemergence plant response
Outline: as §3

[10] = tested on: large crabgrass (Digitaria sanguinalis); assay: Test A pre-/postemergence plant response
Outline: as §3

[11] = tested on: morningglory (Ipomoea coccinea); assay: Test A pre-/postemergence plant response
Outline: as §3

[12] = tested on: corn (Zea mays); assay: Test A pre-/postemergence plant response
Outline: as §3

[13] = tested on: velvetleaf (Abutilon theophrasti); assay: Test A pre-/postemergence plant response
Outline: as §3

[14] = tested on: barnyardgrass (Echinochloa crus-galli); assay: Test A pre-/postemergence plant response
Outline: as §3

[15] = 31 g ai/ha, scale 0 to 100, 0 no effect, 100 complete control
[16] = Flood (flooded paddy test), 62 g ai/ha, scale 0 to 100, 0 no effect, 100 complete control
[17] = Flood (flooded paddy test), 125 g ai/ha, scale 0 to 100, 0 no effect, 100 complete control
[18] = Flood (flooded paddy test), 250 g ai/ha, scale 0 to 100, 0 no effect, 100 complete control
[19] = Flood, 31 g ai/ha, scale 0 to 100
[20] = Postemergence, 125 g ai/ha, 0 to 100 scale, 0 no effect, 100 complete control
[21] = Postemergence, 500 g ai/ha, 0 to 100 scale, 0 no effect, 100 complete control
[22] = Preemergence, 125 g ai/ha, 0 to 100 scale (0 no effect, 100 complete control)
[23] = Preemergence, 500 g ai/ha, 0 to 100 scale (0 no effect, 100 complete control)

CCc1cc(-c2ccc(C(F)(F)F)cc2)nn1-c1c(OC(=O)OC(C)C)cnn(C)c1=O [Compound 12]
Plant response rating, Barley ([1]; 16 g ai/ha, scale 0 to 100, 0 no effect, 100 complete control): 80 | Plant response rating, Barley [1, 15]: 95 | Plant response rating, Barley ([1]; 62 g ai/ha, scale 0 to 100): 100 | Plant response rating, Barley ([1]; 125 g ai/ha, scale 0 to 100): 100 | Plant response rating, Chickweed ([2]; 16 g ai/ha, scale 0 to 100): 0 | Plant response rating, Chickweed [2, 15]: 0 | Plant response rating, Chickweed ([2]; 62 g ai/ha, scale 0 to 100): 0 | Plant response rating, Chickweed ([2]; 125 g ai/ha, scale 0 to 100): 0 | Plant response rating, Windgrass ([3]; 16 g ai/ha, scale 0 to 100): 100 | Plant response rating, Windgrass [3, 15]: 100 | Plant response rating, Windgrass ([3]; 62 g ai/ha, scale 0 to 100): 100 | Plant response rating, Windgrass ([3]; 125 g ai/ha, scale 0 to 100): 100 | Plant response rating, Canarygrass ([4]; 16 g ai/ha, scale 0 to 100): 100 | Plant response rating, Canarygrass [4, 15]: 100 | Plant response rating, Canarygrass ([4]; 62 g ai/ha, scale 0 to 100): 100 | Plant response rating, Canarygrass ([4]; 125 g ai/ha, scale 0 to 100): 100 | Plant response rating, Barnyardgrass [5, 16]: 30 | Plant response rating, Barnyardgrass [5, 17]: 60 | Plant response rating, Barnyardgrass [5, 18]: 80 | Plant response rating, Barnyardgrass [5, 19]: 0 | Plant response rating, Sedge, Umbrella [6, 16]: 40 | Plant response rating, Sedge, Umbrella [6, 17]: 60 | Plant response rating, Sedge, Umbrella [6, 18]: 60 | Plant response rating, Sedge, Umbrella [6, 19]: 0 | Plant response rating, Rice [7, 16]: 20 | Plant response rating, Rice [7, 17]: 70 | Plant response rating, Rice [7, 18]: 80 | Plant response rating, Rice [7, 19]: 0 | Plant response rating, Foxtail, Giant [8, 20]: 80 | Plant response rating, Foxtail, Giant [8, 21]: 100 | Plant response rating, Foxtail, Giant [8, 22]: 100 | Plant response rating, Foxtail, Giant [8, 23]: 100 | Plant response rating, Wheat [9, 20]: 70 | Plant response rating, Wheat [9, 21]: 90 | Plant response rating, Wheat [9, 22]: 90 | Plant response rating, Wheat [9, 23]: 100 | Plant response rating, Crabgrass, Large [10, 20]: 90 | Plant response rating, Crabgrass, Large [10, 21]: 100 | Plant response rating, Crabgrass, Large [10, 22]: 100 | Plant response rating, Crabgrass, Large [10, 23]: 100 | Plant response rating, Morningglory [11, 20]: 0 | Plant response rating, Morningglory [11, 21]: 0 | Plant response rating, Morningglory [11, 22]: 0 | Plant response rating, Morningglory [11, 23]: 0 | Plant response rating, Corn [12, 20]: 90 | Plant response rating, Corn [12, 21]: 90 | Plant response rating, Corn [12, 22]: 80 | Plant response rating, Corn [12, 23]: 90 | Plant response rating, Velvetleaf [13, 20]: 0 | Plant response rating, Velvetleaf [13, 21]: 0 | Plant response rating, Velvetleaf [13, 22]: 0 | Plant response rating, Velvetleaf [13, 23]: 0 | Plant response rating, Barnyardgrass [14, 20]: 90 | Plant response rating, Barnyardgrass [14, 21]: 100 | Plant response rating, Barnyardgrass [14, 22]: 100 | Plant response rating, Barnyardgrass [14, 23]: 100

Reference: patent publication US20100267561A1, “HERBICIDAL PYRIDAZINONE DERIVATIVES” (priority 2007, published 2010)
